Marks after values point to notes of the source that are not given here.
Legend:
[1] = biological target: T1, recombinant human RPE65 and LRAT (Homo sapiens, UniProt Q16518); test: In vitro isomerase inhibition assay, recombinant human enzyme system (HEK293 homogenate); assay type: biochemical
T1 construct: expressed in transfected cells; host or cells: HEK293 cell clone (homogenate); CRALBP was made in E. coli TOP10
T1 sequence (Q16518 2-533 limits assumed): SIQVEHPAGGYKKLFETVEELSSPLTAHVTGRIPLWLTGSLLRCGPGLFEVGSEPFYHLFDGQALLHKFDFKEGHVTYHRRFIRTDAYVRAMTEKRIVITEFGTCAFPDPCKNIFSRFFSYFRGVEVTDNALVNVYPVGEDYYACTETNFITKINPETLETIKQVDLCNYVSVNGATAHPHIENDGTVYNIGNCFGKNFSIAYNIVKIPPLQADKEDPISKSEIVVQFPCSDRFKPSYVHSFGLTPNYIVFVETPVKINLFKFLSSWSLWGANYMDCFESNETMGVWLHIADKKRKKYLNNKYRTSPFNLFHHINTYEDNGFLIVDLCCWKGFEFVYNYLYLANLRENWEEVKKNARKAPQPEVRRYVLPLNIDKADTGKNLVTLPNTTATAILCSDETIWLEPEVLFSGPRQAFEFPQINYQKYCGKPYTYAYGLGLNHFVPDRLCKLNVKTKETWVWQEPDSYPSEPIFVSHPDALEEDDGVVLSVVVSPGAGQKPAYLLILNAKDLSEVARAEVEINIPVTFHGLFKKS
Procedure: The concentration dependent effect of the compounds disclosed herein on the retinol isomerization reaction can also be evaluated with a recombinant human enzyme system. […] A homogenate of HEK293 cell clone expressing recombinant human RPE65 and LRAT were the source of the visual enzymes, and exogenous all-trans-retinol (about 20 μM) was used as the substrate. Recombinant human CRALBP (about 80 ug/mL) was added to enhance the formation of 11-cis-retinal. The 200 μL Bis-Tris Phosphate buffer (10 mM, pH 7.2) based reaction mixture also contains 0.5% BSA, and 1 mM NaPPi. In this assay, the reaction was carried out at 37° C. in duplicates for one hour and was terminated by addition of 300 μL methanol. The amount of reaction product, 11-cis-retinol, was measured by HPLC analysis following Heptane extraction of the reaction mixture. […] The ability of the numerous compounds disclosed herein to inhibit isomerization reaction is quantified and the respective IC50 value is determined. The tables below summarises the IC50 values of various compounds of the present invention determined by either of the above two methods. FIG. 1 is a representative figure of the IC50 determination of the compound of Example 2.

[2] = tested on: ERG response in the eyes of mice; test: Electroretinographic (ERG) study, C57BL/6 mice; assay type: in vivo; details: for b-wave ampl. 0.01 cd.s/m^2: dark-adapted ERG, in µV (unit assumed); for Vmax average: light-adapted ERG
Procedure: This example describes determining the effect of an alkyne derivative compound that is a visual cycle modulator on the magnitude of the ERG response in the eyes of mice after oral dosing of the animals with the compound. […]
Three groups of nine-week old mice (19-25 grams), both genders (strain C5 7BL/6, Charles River Laboratories, Wilmington, Mass.) are housed at room temperature, 72±4° F., and relative humidity of approximately 25%. Animals are housed in a 12-hour light/dark cycle environment, have free access to feed and drinking water and are checked for general health and well-being prior to use and during the study. Body weights are determined for a representative sample of mice prior to initiation of dosing. The average weight determined from this sampling is used to establish the dose for all mice in the study.
(§1) Each test compound is dissolved in the control solvent (EtOH), and diluted 1:10 ([…]) in corn oil (Crisco Pure Corn Oil, J.M. Smucker Company, Orrville, Ohio) to the desired dose (mg/kg) in the desired volume (˜0.1 mL/animal). The control vehicle is ethanol: corn oil (1:10 (0.9 ml/9 ml)). The treatment designations and animal assignments are described in Table 16.
(§2) Animals are dosed once orally by gavage, with the assigned vehicle control or test compounds during the light cycle (between 30 min and 3 hours 30 min after the beginning of the light cycle).
(§3) ERG recordings are made on dark-adapted and, subsequently (during the course of the same experiment), on light-adapted states. For the dark-adapted response, animals are housed in a dark-adapted environment for at least 1 hour prior to the recording, commencing at least 30 minutes after the start of the light cycle.
(§4) Pupils were dilated by placing a 5 microliter drop of mydriatic solution (tropicamide 0.5%) in the recorded eye. A mouse corneal monopolar contact lens electrode (Mayo Corporation, Inazawa, Aichi, Japan) was placed on the cornea, and a subcutaneous reference low profile needle 12 mm electrode (Grass Telefactor, W Warwick, R.I.) was placed medial from the eye. A ground needle electrode was placed in the tail. Data collection was obtained using an Espion E^2 (Diagnosys LLC, Littleton, Mass.) ERG recording system with Color Dome Ganzfeld stimulator. Full dark-adapted intensity-response function was determined following a brief white flash stimuli of 14 intensities ranging from 0.0001 cd·s/m^2 to 333 cd·s/m^2. Subsequently, full light-adapted intensity-response function was determined following a brief white flash stimuli of 9 intensities ranging from 0.33 cd·s/m^2 to 333 cd·s/m^2. Analysis of the obtained responses was done off-line. Intensity-response function determination was done by fitting a sigmoid function to the data (Naka K I, Rushton Wash., 1966; Naka K I, Rushton Wash., 1967).

[3] = tested on: ERG response in the eyes of mice; test: Electroretinographic (ERG) study, BALB/c mice; assay type: in vivo; parameters: Vmax average: unit not given beside the values; details: for b-wave ampl. 0.01 cd.s/m^2: dark-adapted ERG, in µV (unit assumed); for Vmax average: light-adapted ERG
Procedure: as §1, §2, §3, §4
A related example describes determining the effect of an alkyne derivative compound that is a visual cycle modulator on the level of ERG response in the eyes of mice after oral dosing of the animals with the compound. The experimental procedure is the same as that described in the previous example with the following exceptions: 12 to 16-week old BALB/c mice were used (body weights 16-25 g).

[4] = 4 h, dose 1 (mg/kg oral), aggregated average

In the case of CCCC(O)(C#Cc1cccc(CCCN)c1)CCC [Example 2, 4-((3-(3-Aminopropyl)phenyl)ethynyl)heptan-4-ol], the “inhibition of isomerase activity (figure legend)” value [1] is reported as “concentration-dependent inhibition”, the “Change vs. control (%)” value ([2]; dark-adapted ERG b-wave, 4 h, dose 0.5 (mg/kg oral)) is reported as −50.65% and the “Change vs. control (%)” value ([2]; dark-adapted ERG b-wave, 4 h, dose 1 (mg/kg oral)) is reported as −94.04%. For the same molecule, the “Change vs. control (%)” value ([2]; dark-adapted ERG b-wave, 25 h, dose 1 (mg/kg oral), compared to 4 hours vehicle) was −19.93%**, the “b-wave ampl. 0.01 cd.s/m^2” value ([2]; 4 h, dose 0.5 (mg/kg oral)) was 265 and the “b-wave ampl. 0.01 cd.s/m^2” value [2, 4] was 32*. For the same molecule, the “b-wave ampl. 0.01 cd.s/m^2” value ([2]; 25 h, dose 1 (mg/kg oral)) was 430, the “Change vs. control (%)” value ([2]; light-adapted ERG Vmax, 4 h, dose 0.5 (mg/kg oral)) was 36.49% and the “Change vs. control (%)” value ([2]; light-adapted ERG Vmax, 4 h, dose 1 (mg/kg oral)) was 77.03%. The “Change vs. control (%)” value ([2]; light-adapted ERG Vmax, 25 h, dose 1 (mg/kg oral), compared to 4 hours vehicle) was 91.89%**, the Vmax average ([2]; 4 h, dose 0.5 (mg/kg oral)) was 202 and the Vmax average [2, 4] was 262*. The Vmax average ([2]; 25 h, dose 1 (mg/kg oral)) was 284.
CCCC(O)(C#Cc1cccc(C(O)CCN)c1)CCC (centres unmarked) [Example 19, 4-((3-(3-Amino-1-hydroxypropyl)phenyl)ethynyl)heptan-4-ol] was tested, and the “Change vs. control (%)” value ([3]; dark-adapted ERG b-wave, 4 h, dose 0.2, BALB/c mice) was −52.89%, the “Change vs. control (%)” value ([3]; dark-adapted ERG b-wave, 4 h, dose 0.3, BALB/c mice) was −80.77% and the “Change vs. control (%)” value ([3]; dark-adapted ERG b-wave, 4 h, dose 0.6, BALB/c mice) was −95.92%. For the same molecule, the “Change vs. control (%)” value ([3]; dark-adapted ERG b-wave, 25 h, dose 0.3, BALB/c mice, compared to 4 hours vehicle) was −55.75%**, the “b-wave ampl. 0.01 cd.s/m^2” value ([3]; 4 h, dose 0.2, BALB/c mice) was 263 and the “b-wave ampl. 0.01 cd.s/m^2” value ([3]; 4 h, dose 0.3, BALB/c mice, aggregated average) was 107*. For the same molecule, the “b-wave ampl. 0.01 cd.s/m^2” value ([3]; 4 h, dose 0.6, BALB/c mice) was 23, the “b-wave ampl. 0.01 cd.s/m^2” value ([3]; 25 h, dose 0.3, BALB/c mice) was 247 and the “Change vs. control (%)” value ([3]; light-adapted ERG Vmax, 4 h, dose 0.2, BALB/c mice) was −0.13%. For the same molecule, the “Change vs. control (%)” value ([3]; light-adapted ERG Vmax, 4 h, dose 0.3, BALB/c mice) was 11.33%, the “Change vs. control (%)” value ([3]; light-adapted ERG Vmax, 4 h, dose 0.6, BALB/c mice) was 6.34% and the “Change vs. control (%)” value ([3]; light-adapted ERG Vmax, 25 h, dose 0.3, BALB/c mice) was 10.66%. It also gave a Vmax average ([3]; 4 h, dose 0.2, BALB/c mice) of 163, a Vmax average ([3]; 4 h, dose 0.3, BALB/c mice) of 181 and a Vmax average ([3]; 4 h, dose 0.6, BALB/c mice) of 173. The Vmax average ([3]; 25 h, dose 0.3, BALB/c mice) was 180.
